Calls of active or inactive are those of the source. The rule behind the calls is not given here.
Tests used:
MDA-MB-468 [1] = experiment: Induction of apoptosis in human MDA-MB-468 cells assessed as increase in late apoptotic cells measured after 48 hrs by Annexin V-FITC/propidium iodide staining based flow cytometry; type: functional, cell-based; details: dose 5-20 µM, DDE = dose-dependent effect
MDA-MB-231 [2] = experiment: Cell cycle arrest in human MDA-MB-231 cells assessed as increase in CHK2 phosphorylation at Thr 68 residue measured after 48 hrs by Western blot analysis; type: functional, cell-based; details: dose 5-20 µM, DDE = dose-dependent effect
MDA-MB-468 [3] = experiment: Induction of DNA damage in human MDA-MB-468 cells assessed as reduction in RAD51 expression measured after 6 to 48 hrs by Western blot analysis; type: functional, cell-based; details: dose 5-20 µM, time 6-48 hrs, DDE = dose-dependent effect
MDA-MB-468 [4] = experiment: Cell cycle arrest in human MDA-MB-468 cells assessed as reduction in CDK2 expression measured after 48 hrs by Western blot analysis; type: functional, cell-based; details: dose 5-20 µM, DDE = dose-dependent effect
MDA-MB-468 [5] = experiment: Induction of apoptosis in human MDA-MB-468 cells assessed as increase in cleaved caspase-3 expression measured after 48 hrs by Western blot analysis; type: functional, cell-based; details: dose 5-20 µM, DDE = dose-dependent effect
MDA-MB-231 [6] = experiment: Induction of apoptosis in human MDA-MB-231 cells assessed as increase in cleaved PARP expression measured after 48 hrs by Western blot analysis; type: functional, cell-based; details: dose 5-20 µM, DDE = dose-dependent effect
MDA-MB-231 [7] = experiment: Induction of apoptosis in human MDA-MB-231 cells assessed as increase in Bim expression measured after 48 hrs by Western blot analysis; type: functional, cell-based; details: dose 5-20 µM, DDE = dose-dependent effect
MDA-MB-468 [8] = experiment: Inhibition of colony formation in human MDA-MB-468 cells at 5 to 20 umol/l pretreated for 48 hrs followed by replacement of fresh medium and measured after 15 days by crystal violet staining based assay; type: functional, cell-based; details: dose 5-20 µmol/L
MDA-MB-468 [9] = experiment: Antiproliferative activity against human MDA-MB-468 cells assessed as cell growth inhibition measured after 48 hrs by MTT assay; type: functional, cell-based; details: MDA-MB-468, 48 h
HSC-3 = experiment: Antiproliferative activity against human HSC-3 cells assessed as cell growth inhibition measured after 48 hrs by MTT assay; type: functional, cell-based; details: HSC-3, 48 h
MDA-MB-231 [10] = experiment: Cell cycle arrest in human MDA-MB-231 cells assessed as reduction in cyclin A expression measured after 48 hrs by Western blot analysis; type: functional, cell-based; details: dose 5-20 µM, DDE = dose-dependent effect
U-87 MG = experiment: Antiproliferative activity against human U87 cells assessed as cell growth inhibition measured after 48 hrs by MTT assay; type: functional, cell-based, U-87MG ATCC
MDA-MB-468 [11] = experiment: Cell cycle arrest in human MDA-MB-468 cells assessed as increase in CHK2 phosphorylation at Thr 68 residue measured after 48 hrs by Western blot analysis; type: functional, cell-based; details: dose 5-20 µM, DDE = dose-dependent effect
MDA-MB-231 [12] = experiment: Antitumor activity against human MDA-MB-231 cells xenografted in ip dosed NOD/SCID mouse assessed as upregulation of gamma-H2AX expression administered at 3 days interval for 24 days and measured on day 25 by Western blot analysis; type: functional, organism-based; details: dose 5-15 mg/kg, time 25.0 day, DDE = dose-dependent effect
SW-620 = experiment: Antiproliferative activity against human SW-620 cells assessed as cell growth inhibition measured after 48 hrs by MTT assay; type: functional, cell-based; details: SW-620, 48 h
MDA-MB-231 [13] = experiment: Induction of apoptosis in human MDA-MB-231 cells assessed as reduction in Bcl-2 expression measured after 48 hrs by Western blot analysis; type: functional, cell-based; details: dose 5-20 µM, DDE = dose-dependent effect
MDA-MB-468 [14] = experiment: Antiproliferative activity against human MDA-MB-468 cells assessed as reduction in cell count by microscopy; type: functional, cell-based
PC-3 = experiment: Antiproliferative activity against human PC-3 cells assessed as cell growth inhibition measured after 48 hrs by MTT assay; type: functional, cell-based; details: PC-3, 48 h
MDA-MB-231 [15] = experiment: Induction of apoptosis in human MDA-MB-231 cells assessed as increase in cleaved caspase-9 expression measured after 48 hrs by Western blot analysis; type: functional, cell-based; details: dose 5-20 µM, DDE = dose-dependent effect
MDA-MB-231 [16] = experiment: Cell cycle arrest in human MDA-MB-231 cells assessed as increase in p21 expression measured after 48 hrs by Western blot analysis; type: functional, cell-based; details: dose 5-20 µM, DDE = dose-dependent effect
MDA-MB-468 [17] = experiment: Induction of DNA damage in human MDA-MB-468 cells assessed as reduction in BRCA2 expression measured after 6 to 48 hrs by Western blot analysis; type: functional, cell-based; details: dose 5-20 µM, time 6-48 hrs, DDE = dose-dependent effect
[18] = target: T1, Structural maintenance of chromosomes protein 1A (Homo sapiens) (UniProt Q14683); experiment: Activation of SMC1 phosphorylation in human MDA-MB-468 cells at 5 to 20 uM measured after 6 to 48 hrs by Western blot analysis; type: cell-based; details: filed as activator, dose 5-20 µM, time 6-48 hrs
T1 sequence (whole entry): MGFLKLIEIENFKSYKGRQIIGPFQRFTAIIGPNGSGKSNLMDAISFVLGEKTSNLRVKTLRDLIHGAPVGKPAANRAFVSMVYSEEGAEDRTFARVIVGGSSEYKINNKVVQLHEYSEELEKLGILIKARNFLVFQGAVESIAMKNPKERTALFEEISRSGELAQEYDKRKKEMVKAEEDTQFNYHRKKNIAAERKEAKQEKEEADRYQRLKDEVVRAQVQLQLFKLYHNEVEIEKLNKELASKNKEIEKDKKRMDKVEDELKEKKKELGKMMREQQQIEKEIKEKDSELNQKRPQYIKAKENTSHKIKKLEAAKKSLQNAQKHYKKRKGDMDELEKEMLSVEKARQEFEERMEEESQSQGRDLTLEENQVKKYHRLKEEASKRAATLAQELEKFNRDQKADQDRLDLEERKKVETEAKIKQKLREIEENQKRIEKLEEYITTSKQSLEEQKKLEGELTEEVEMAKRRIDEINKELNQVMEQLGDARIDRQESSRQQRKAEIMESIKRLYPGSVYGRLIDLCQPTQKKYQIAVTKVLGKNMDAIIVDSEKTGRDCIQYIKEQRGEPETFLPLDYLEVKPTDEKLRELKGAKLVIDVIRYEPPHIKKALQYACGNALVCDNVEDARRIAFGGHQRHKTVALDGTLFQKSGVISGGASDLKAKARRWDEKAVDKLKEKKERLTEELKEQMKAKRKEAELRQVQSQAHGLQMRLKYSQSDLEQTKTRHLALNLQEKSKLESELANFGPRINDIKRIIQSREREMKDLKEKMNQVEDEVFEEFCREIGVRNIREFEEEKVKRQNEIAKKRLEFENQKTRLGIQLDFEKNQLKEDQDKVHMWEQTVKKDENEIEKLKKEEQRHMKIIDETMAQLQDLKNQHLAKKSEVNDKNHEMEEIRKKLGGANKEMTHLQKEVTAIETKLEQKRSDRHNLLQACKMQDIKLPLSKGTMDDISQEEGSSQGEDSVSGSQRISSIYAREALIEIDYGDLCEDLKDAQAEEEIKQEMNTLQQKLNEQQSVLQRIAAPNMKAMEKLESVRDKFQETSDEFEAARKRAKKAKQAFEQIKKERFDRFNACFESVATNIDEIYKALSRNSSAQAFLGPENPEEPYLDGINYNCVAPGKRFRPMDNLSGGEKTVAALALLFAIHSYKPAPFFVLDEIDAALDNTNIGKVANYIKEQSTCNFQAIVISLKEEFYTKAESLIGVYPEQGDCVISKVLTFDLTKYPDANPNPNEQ

[19] = target: Serine-protein kinase ATM (Homo sapiens) (UniProt Q13315); experiment: Activation of ATM phosphorylation in human MDA-MB-231 cells at 5 to 20 uM measured after 6 to 48 hrs by Western blot analysis; type: cell-based; details: filed as activator, dose 5-20 µM, time 6-48 hrs
Chain of Serine-protein kinase ATM (Homo sapiens) (Q13315 whole entry): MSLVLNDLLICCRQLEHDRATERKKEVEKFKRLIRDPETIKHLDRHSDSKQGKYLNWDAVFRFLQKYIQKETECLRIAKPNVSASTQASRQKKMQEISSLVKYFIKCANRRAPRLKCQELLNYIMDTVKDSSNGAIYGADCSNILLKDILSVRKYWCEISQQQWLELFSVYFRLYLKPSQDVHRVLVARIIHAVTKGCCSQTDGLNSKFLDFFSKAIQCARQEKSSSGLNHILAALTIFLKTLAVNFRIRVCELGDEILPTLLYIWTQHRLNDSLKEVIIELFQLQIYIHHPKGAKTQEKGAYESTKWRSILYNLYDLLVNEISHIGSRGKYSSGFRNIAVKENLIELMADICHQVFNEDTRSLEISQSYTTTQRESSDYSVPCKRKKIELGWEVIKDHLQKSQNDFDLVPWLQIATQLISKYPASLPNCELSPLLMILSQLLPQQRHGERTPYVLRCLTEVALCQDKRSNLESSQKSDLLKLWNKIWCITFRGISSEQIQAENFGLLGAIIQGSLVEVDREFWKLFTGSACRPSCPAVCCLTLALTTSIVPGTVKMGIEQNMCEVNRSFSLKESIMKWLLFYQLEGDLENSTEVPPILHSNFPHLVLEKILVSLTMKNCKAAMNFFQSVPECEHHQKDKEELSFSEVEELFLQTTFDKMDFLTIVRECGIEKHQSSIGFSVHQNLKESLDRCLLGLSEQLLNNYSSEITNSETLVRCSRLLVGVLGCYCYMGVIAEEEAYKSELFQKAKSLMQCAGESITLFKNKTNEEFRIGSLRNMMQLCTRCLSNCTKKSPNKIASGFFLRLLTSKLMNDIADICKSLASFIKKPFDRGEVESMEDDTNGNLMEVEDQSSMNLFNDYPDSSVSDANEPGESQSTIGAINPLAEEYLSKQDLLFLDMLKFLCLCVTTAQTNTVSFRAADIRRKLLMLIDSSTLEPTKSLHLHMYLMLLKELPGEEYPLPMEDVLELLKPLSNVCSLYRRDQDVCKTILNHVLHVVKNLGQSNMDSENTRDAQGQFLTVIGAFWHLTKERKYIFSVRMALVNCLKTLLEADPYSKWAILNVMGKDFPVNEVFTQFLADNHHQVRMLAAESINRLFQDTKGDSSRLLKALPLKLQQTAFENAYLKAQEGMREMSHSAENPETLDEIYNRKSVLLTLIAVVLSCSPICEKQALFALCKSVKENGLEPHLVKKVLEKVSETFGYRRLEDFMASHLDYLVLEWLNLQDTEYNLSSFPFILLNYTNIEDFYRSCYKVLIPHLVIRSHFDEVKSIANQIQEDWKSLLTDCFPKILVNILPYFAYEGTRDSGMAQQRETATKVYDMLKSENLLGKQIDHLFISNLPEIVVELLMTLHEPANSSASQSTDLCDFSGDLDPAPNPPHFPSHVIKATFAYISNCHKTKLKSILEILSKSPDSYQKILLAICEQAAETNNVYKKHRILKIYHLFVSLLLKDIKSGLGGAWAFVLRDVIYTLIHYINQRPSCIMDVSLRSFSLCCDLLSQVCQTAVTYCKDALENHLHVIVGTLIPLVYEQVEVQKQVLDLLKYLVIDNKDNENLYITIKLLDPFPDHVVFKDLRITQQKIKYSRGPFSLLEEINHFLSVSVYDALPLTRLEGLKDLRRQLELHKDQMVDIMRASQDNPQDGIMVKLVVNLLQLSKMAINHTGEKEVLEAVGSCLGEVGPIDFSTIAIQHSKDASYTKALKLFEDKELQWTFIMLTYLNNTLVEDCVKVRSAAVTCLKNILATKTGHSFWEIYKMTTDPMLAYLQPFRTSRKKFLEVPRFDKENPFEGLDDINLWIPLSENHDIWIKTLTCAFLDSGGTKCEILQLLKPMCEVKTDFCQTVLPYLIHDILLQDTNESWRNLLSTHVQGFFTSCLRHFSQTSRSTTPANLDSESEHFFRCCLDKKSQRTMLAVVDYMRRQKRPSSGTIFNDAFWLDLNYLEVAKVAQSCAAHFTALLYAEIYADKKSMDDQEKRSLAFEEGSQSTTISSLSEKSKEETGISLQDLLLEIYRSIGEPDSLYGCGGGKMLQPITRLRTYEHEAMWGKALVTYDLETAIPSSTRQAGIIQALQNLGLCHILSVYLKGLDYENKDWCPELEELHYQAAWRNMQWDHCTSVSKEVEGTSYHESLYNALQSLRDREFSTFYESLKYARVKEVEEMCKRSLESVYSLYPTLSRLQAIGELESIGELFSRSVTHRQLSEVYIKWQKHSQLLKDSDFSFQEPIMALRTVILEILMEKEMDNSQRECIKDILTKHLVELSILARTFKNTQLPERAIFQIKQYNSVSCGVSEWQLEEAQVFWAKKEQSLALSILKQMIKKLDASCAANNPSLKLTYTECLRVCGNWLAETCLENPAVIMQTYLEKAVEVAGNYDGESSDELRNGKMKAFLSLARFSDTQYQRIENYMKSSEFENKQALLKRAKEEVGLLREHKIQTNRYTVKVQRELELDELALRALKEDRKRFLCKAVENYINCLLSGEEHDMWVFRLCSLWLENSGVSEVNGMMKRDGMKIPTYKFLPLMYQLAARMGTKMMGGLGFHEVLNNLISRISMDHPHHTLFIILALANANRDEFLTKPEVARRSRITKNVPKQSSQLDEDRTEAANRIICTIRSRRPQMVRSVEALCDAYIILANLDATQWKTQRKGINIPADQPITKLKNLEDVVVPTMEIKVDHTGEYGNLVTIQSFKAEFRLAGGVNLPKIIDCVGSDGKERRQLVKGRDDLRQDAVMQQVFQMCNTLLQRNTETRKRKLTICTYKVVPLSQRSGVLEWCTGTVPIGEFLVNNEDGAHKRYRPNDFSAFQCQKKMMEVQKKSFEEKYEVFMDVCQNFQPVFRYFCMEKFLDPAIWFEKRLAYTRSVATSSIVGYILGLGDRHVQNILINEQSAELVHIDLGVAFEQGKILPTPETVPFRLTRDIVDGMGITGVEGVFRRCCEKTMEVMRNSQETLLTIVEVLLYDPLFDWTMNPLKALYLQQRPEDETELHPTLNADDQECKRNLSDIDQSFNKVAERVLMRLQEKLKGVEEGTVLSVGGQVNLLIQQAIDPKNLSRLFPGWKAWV

- IC50 (MDA-MB-468 [9]): 6.03 µM
- IC50 (U-87 MG): 15.4 µM
- IC50 (SW-620): 25.4 µM
- IC50 (PC-3): 17.5 µM
- Activity [18]: Active
- Activity [19]: Active
SMILES: O=C(NC1CCCCC1)c1[nH]cnc1-c1nc2ccccc2[nH]1
- Activity (MDA-MB-468 [1]): Dde
- Activity (MDA-MB-231 [2]): Dde
- Activity (MDA-MB-468 [3]): Dde
- Activity (MDA-MB-468 [4]): Dde
- Activity (MDA-MB-468 [5]): Dde
- Activity (MDA-MB-231 [6]): Dde
- Activity (MDA-MB-231 [7]): Dde
- inhibition (MDA-MB-468 [8]): Active
- IC50 (HSC-3): 24 µM
- Activity (MDA-MB-231 [10]): Dde
- Activity (MDA-MB-468 [11]): Dde
- Activity (MDA-MB-231 [12]): Dde
- Activity (MDA-MB-231 [13]): Dde
- Activity (MDA-MB-468 [14]): Active
- Activity (MDA-MB-231 [15]): Dde
- Activity (MDA-MB-231 [16]): Dde
- Activity (MDA-MB-468 [17]): Dde

— ChEMBL document CHEMBL5113482, “Discovery of fused benzimidazole-imidazole autophagic flux inhibitors for treatment of triple-negative breast cancer” (Eur J Med Chem, 2022)
